Test results as given in PubChem BioAssay AID1919003 (Molecular Pharmacology Branch, DTP, NCI, 2023).

System: 786-0 complex spheroids with HUVEC/MSC, growth % test/control
Assay: Anticancer human tumor 786-0 cell line growth inhibition [AhR];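 further: compound exposure lasted seven days before the read-out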
Details: for IC50: curve of first compound; for viability, T/C: stronger effect = lower value; active means viability on the fitted dose curve at most 10% of control; inactive means the rest
How it was run: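 Agents were dosed in half-log steps down from roughly clinical Cmax, or from 10 microM where Cmax was unknown, alone and with AhR antagonists. Read-out: percent test/control growth of tumor spheroids containing HUVEC and MSC stromal cells.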

Nc1ncn(C2CC(O)C(CO)S2)c(=O)n1 (stereo not given) + Cc1ccccc1N=Nc1ccc(NC(=O)c2ccnn2C)c(C)c1
> 300 nM: IC50 (second compound 0.1 µM) | IC50 (second compound 0.316 µM) | IC50 (second compound 1 µM) | IC50 (second compound 3.16 µM) | IC50 (second compound 10 µM)
inactive: viability, T/C (second compound 0.1 µM, first compound 0.000949 µM) 102% | viability, T/C (second compound 0.1 µM, first compound 0.003 µM) 99.8% | viability, T/C (second compound 0.1 µM, first compound 0.00949 µM) 105% | viability, T/C (second compound 0.1 µM, first compound 0.03 µM) 99.6% | viability, T/C (second compound 0.1 µM, first compound 0.0949 µM) 83.6% | viability, T/C (second compound 0.1 µM, first compound 0.3 µM) 68.7% | viability, T/C (second compound 0.316 µM, first compound 0.000949 µM) 100% | viability, T/C (second compound 0.316 µM, first compound 0.003 µM) 100% | viability, T/C (second compound 0.316 µM, first compound 0.00949 µM) 103% | viability, T/C (second compound 0.316 µM, first compound 0.03 µM) 98.2% | viability, T/C (second compound 0.316 µM, first compound 0.0949 µM) 100% | viability, T/C (second compound 0.316 µM, first compound 0.3 µM) 73.1% | viability, T/C (second compound 1 µM, first compound 0.000949 µM) 99.6% | viability, T/C (second compound 1 µM, first compound 0.003 µM) 96.5% | viability, T/C (second compound 1 µM, first compound 0.00949 µM) 112% | viability, T/C (second compound 1 µM, first compound 0.03 µM) 97.1% | viability, T/C (second compound 1 µM, first compound 0.0949 µM) 91.2% | viability, T/C (second compound 1 µM, first compound 0.3 µM) 75% | viability, T/C (second compound 3.16 µM, first compound 0.000949 µM) 93.3% | viability, T/C (second compound 3.16 µM, first compound 0.003 µM) 99.9% | viability, T/C (second compound 3.16 µM, first compound 0.00949 µM) 94% | viability, T/C (second compound 3.16 µM, first compound 0.03 µM) 101% | viability, T/C (second compound 3.16 µM, first compound 0.0949 µM) 86% | viability, T/C (second compound 3.16 µM, first compound 0.3 µM) 69.6% | viability, T/C (second compound 10 µM, first compound 0.000949 µM) 91.1% | viability, T/C (second compound 10 µM, first compound 0.003 µM) 108% | viability, T/C (second compound 10 µM, first compound 0.00949 µM) 90.8% | viability, T/C (second compound 10 µM, first compound 0.03 µM) 88.2% | viability, T/C (second compound 10 µM, first compound 0.0949 µM) 82.8% | viability, T/C (second compound 10 µM, first compound 0.3 µM) 63.4%

CC1(C)CCC(CN2CCN(c3ccc(C(=O)NS(=O)(=O)c4ccc(NCC5CCOCC5)c([N+](=O)[O-])c4)c(Oc4cnc5[nH]ccc5c4)c3)CC2)=C(c2ccc(Cl)cc2)C1 + Cc1cncc(-c2nc(NCCc3c[nH]c4ccccc34)c3ncn(C(C)C)c3n2)c1
> 10000 nM: IC50 (second compound 0.1 µM) | IC50 (second compound 0.316 µM) | IC50 (second compound 1 µM) | IC50 (second compound 3.16 µM)
< 31.6 nM: IC50 (second compound 10 µM)
inactive: viability, T/C (second compound 0.1 µM, first compound 0.0316 µM) 107% | viability, T/C (second compound 0.1 µM, first compound 0.1 µM) 123% | viability, T/C (second compound 0.1 µM, first compound 0.316 µM) 117% | viability, T/C (second compound 0.1 µM, first compound 1 µM) 109% | viability, T/C (second compound 0.1 µM, first compound 3.16 µM) 113% | viability, T/C (second compound 0.1 µM, first compound 10 µM) 93.3% | viability, T/C (second compound 0.316 µM, first compound 0.0316 µM) 117% | viability, T/C (second compound 0.316 µM, first compound 0.1 µM) 118% | viability, T/C (second compound 0.316 µM, first compound 0.316 µM) 119% | viability, T/C (second compound 0.316 µM, first compound 1 µM) 129% | viability, T/C (second compound 0.316 µM, first compound 3.16 µM) 102% | viability, T/C (second compound 0.316 µM, first compound 10 µM) 93.8% | viability, T/C (second compound 1 µM, first compound 0.0316 µM) 118% | viability, T/C (second compound 1 µM, first compound 0.1 µM) 105% | viability, T/C (second compound 1 µM, first compound 0.316 µM) 109% | viability, T/C (second compound 1 µM, first compound 1 µM) 103% | viability, T/C (second compound 1 µM, first compound 3.16 µM) 102% | viability, T/C (second compound 1 µM, first compound 10 µM) 97.3% | viability, T/C (second compound 3.16 µM, first compound 0.0316 µM) 65.4% | viability, T/C (second compound 3.16 µM, first compound 0.1 µM) 71.9% | viability, T/C (second compound 3.16 µM, first compound 0.316 µM) 74.4% | viability, T/C (second compound 3.16 µM, first compound 1 µM) 76.8% | viability, T/C (second compound 3.16 µM, first compound 3.16 µM) 67.4% | viability, T/C (second compound 3.16 µM, first compound 10 µM) 70.8%
active: viability, T/C (second compound 10 µM, first compound 0.0316 µM) 5.05% | viability, T/C (second compound 10 µM, first compound 0.1 µM) 3.29% | viability, T/C (second compound 10 µM, first compound 0.316 µM) 6.81% | viability, T/C (second compound 10 µM, first compound 1 µM) 6.55% | viability, T/C (second compound 10 µM, first compound 3.16 µM) 6.02% | viability, T/C (second compound 10 µM, first compound 10 µM) 23.1%
